Test: method code SF, from Hansch, C. & Leo, A. (1987). Log P database [Dataset]. Pomona College Medicinal Chemistry Project.

| Compound | logP | also measured |
| --- | --- | --- |
| CCCCC(=O)Nc1ccc(Cl)c(Cl)c1 | 4.17 |  |
| O=C1C(N2CCOCC2)=C(N2CC2)C(=O)C(N2CCOCC2)=C1N1CC1 | 0.52 |  |
| Cc1c(N2CCCC2)c(=O)n(-c2ccccc2)c(=O)n1C |  | logD (pH 7.4): 2.26 |
| Cc1c(N2CCOCC2)c(=O)n(C)c(=O)n1C1CCCCC1 |  | logD (pH 7.4): 2.39 |
| CCC(=O)OCCOc1ccc(C=O)cc1OC | 1.33 |  |
| O=C(Oc1ccccc1)Oc1ccccc1 | 3.28 |  |
| COc1cccc(Cc2cnc(N)nc2N)c1OC |  | logD (pH 13.0): 1.62 |
| CNC(=O)O/N=C(\C)C(C)(C)[N+](=O)[O-] | 0.66 |  |
| CN(C)/N=N/c1ccccc1C(=O)NCC#N | 1.79 |  |
| Nc1cccc([N+](=O)[O-])c1N | 1.27 |  |
| Cc1ccc([N+]([O-])=NC#N)cc1 | 2.39 |  |
| CCCCC1CC(C(=O)NC(C(C)Cl)C2OC(SC)C(O)C(O)C2O)N(CC)C1 (stereo not given) |  | logD (pH 12.0): 3.21 |
| COc1cccc(C)c1 | 2.66 |  |
| CCC(=O)Nc1ccccc1 | 1.61 |  |
| COC(=O)CCC(=O)N(C)c1ccc(S(=O)(=O)N(C)C)cc1 | 0.43 |  |
| CN(C)CCN(C)C | 0.3 |  |
| C#CCCC(C)=O | 0.58 |  |
| O=C(O)COc1ccc(Cl)c(Cl)c1 | 2.81 |  |
| Cl/C=C/Cl | 2.09 |  |
| CC(=O)Nc1ccc(N(C)C)cc1 | 1 |  |
| O=CNc1ccc(F)cc1 |  | logD (pH 7.0): 1.27 |
| CC(=O)OCCC(=O)N(C)c1ccc(S(=O)(=O)N(C)C)cc1 | 0.26 |  |
| Nc1cccc(Cl)c1 | 1.9 |  |
| CC(=O)OCC1=C(C(=O)O)N2C(=O)C(NC(=O)C(O)c3ccccc3)C2SC1 (stereo not given) |  | logD (pH 3.0): -0.44 |
| COc1ccc(N2C(N)=NC(N)=NC2(C)C)cc1 |  | logD (pH 13.0): 0.4 |
| c1ccc(CSc2cnn[nH]2)cc1 | 2.65 |  |
| O=C(O)c1ccoc1 | 1.03 |  |
| CCOC(=O)CON=Cc1ccc(OCC(=O)OCC)c(OC)c1 | 1.87 |  |
| CN(C)C(=S)Nc1ccccc1 | 1.04 |  |

Now from value to compound, other results behind:

| logP | Compound | also measured |
| --- | --- | --- |
| 3.49 | CCOC(=O)C(=Cc1ccc(Cl)cc1Cl)C(=O)OCC |  |
| 4.25 | c1ccc2c(c1)Cc1ccccc1C2 |  |
| 0.67 | COc1cc2c(c(OC)c1OC)-c1ccc(OC)c(=O)cc1[C@@H](N)CC2 |  |
| 3.94 | CCCCCCCCC1OC(=O)c2ccccc21 (stereo not given) |  |
| 0.57 | c1ccc2cnncc2c1 |  |
| 0.28 | O=C(NCC(O)CO)Nc1ccccc1 (stereo not given) |  |
| 0.08 | Cn1c(=O)c(=O)n(C)c2ccccc21 |  |
| 0.8 | O=C1OCc2ccccc21 |  |
| 4.78 | C(#Cc1ccccc1)c1ccccc1 |  |
| 2.31 | CCCCCC(C)O (stereo not given) |  |
| 0.31 | NC(=O)Cc1ccsc1 |  |
| -0.67 | CN(C(=O)CCS(C)=O)c1ccc(S(=O)(=O)N(C)C)cc1 (stereo not given) |  |
| 2.74 | COc1ccccc1C |  |
| 3.12 | CC[C@H]1OC(=O)[C@H](C)[C@@H](OC2CC(C)(OC)C(O)C(C)O2)C(C)[C@@H](OC2OC(C)CC(N(C)C)C2O)[C@](C)(O)C[C@@H](C)C(=O)[C@H](C)[C@@H](O)[C@H]1C (stereo not given in full) |  |
| 0.43 | O=C(Nc1ccccc1)NC(CO)(CO)CO |  |
| 1.75 | COc1ccc2[nH]c(CCCc3nc4cc(OC)ccc4[nH]3)nc2c1 |  |

| logP | Compound | also measured |
| --- | --- | --- |
| 1.11 | Cc1ccccn1 |  |
| 0.86 | COc1ccc(C(N)=O)cc1 |  |
| 2.9 | FC(F)(F)c1ccccc1 |  |
| 1.38 | Clc1ccc2[nH]c(CCCCCCc3nc4cc(Cl)ccc4[nH]3)nc2c1 |  |
| 1.61 | C[C@]12CCC(=O)C=C1CC[C@@H]1[C@@H]2[C@@H](O)C[C@@]2(C)[C@H]1CC[C@]2(O)C(=O)CO |  |
| 2.77 | CC(=O)N(C)/N=N/c1ccc(F)cc1 |  |
| 3.33 | CC(C)(C)c1ccccc1OCC(=O)O |  |
| 3.11 | CON(C)C(=O)Nc1cccc(OCc2ccccc2)c1 |  |
| 2.45 | O=[N+]([O-])c1ccc2[nH]c(CCCCc3nc4cc([N+](=O)[O-])ccc4[nH]3)nc2c1 |  |
| -0.84 | C1OC1CN1CCN(CC2CO2)CC1 (stereo not given) |  |
| 3.67 | COc1cc2c(c3c1c(=O)c1ccccc1n3C)C=CC(C)(C)O2 |  |
| 1.39 | Cc1ccc2[nH]c(CCc3nc4cc(C)ccc4[nH]3)nc2c1 |  |
| 1.98 | CC(=O)C(=Cc1ccccc1C)C(C)=O |  |
| 0.84 | Cn1nnc2ccccc2c1=O |  |
| -0.22 | Nc1ncccn1 |  |

From the SangsterLogP compilation
